Source: patent US6936585B2, “Corticotropin releasing factor 2 receptor agonists” (priority 2002, dated 2005)
Ends that are not written are not given here. Peptide text beside a SMILES is read from it.

Tests used:
[1] = molecular target: T1, CRF2R (Homo sapiens, UniProt Q13324); test: CRF2R agonist activation (EC50 / Emax), called comparative CRF binding; assay type: cell-based; settings: for Emax: read-out: CRF2R Emax
T1 sequence (Q13324 1-411): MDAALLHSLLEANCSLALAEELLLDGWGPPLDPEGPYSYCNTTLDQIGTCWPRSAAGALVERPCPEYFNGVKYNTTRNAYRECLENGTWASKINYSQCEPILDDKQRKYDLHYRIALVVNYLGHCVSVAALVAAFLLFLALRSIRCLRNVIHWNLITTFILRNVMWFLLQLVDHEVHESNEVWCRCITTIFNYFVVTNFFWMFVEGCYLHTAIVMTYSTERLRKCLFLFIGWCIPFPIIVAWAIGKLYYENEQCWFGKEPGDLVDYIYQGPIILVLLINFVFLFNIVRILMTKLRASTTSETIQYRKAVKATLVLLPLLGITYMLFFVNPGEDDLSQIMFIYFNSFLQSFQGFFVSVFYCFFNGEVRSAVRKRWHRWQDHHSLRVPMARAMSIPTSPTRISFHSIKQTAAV
Procedure, shortened: (§1)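 Receptor-expressing cells are contacted with test peptide or the vehicle it is dissolved in. Lysates are then assayed for cAMP, or expression of a CRE-coupled reporter is quantitated. Engineered cells carrying receptor-G-protein fusions may replace full-length receptors.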

[2] = molecular target: T2, CRF1R (Homo sapiens, UniProt P34998); test: CRF1R agonist activation (EC50 / Emax), called comparative CRF binding; assay type: cell-based; settings: for Emax: read-out: CRF1R Emax
T2 sequence (P34998 24-415): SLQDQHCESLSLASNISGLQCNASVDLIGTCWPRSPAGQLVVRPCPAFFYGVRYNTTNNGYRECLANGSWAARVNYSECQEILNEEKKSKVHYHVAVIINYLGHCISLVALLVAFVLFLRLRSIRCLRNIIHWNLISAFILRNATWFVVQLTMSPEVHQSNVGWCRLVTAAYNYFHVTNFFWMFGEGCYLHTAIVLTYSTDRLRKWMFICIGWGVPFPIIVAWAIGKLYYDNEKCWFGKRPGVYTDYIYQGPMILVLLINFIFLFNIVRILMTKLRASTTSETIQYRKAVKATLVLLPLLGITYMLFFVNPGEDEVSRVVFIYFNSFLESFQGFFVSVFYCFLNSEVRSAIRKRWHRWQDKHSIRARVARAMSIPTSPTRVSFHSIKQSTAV
Procedure, shortened: as §1

In the case of `CC[C@H](C)[C@H](NC(=O)[C@H](CCCNC(=N)N)NC(=O)[C@H](C)NC(=O)[C@H](CC(N)=O)NC(=O)[C@H](CCC(N)=O)NC(=O)[C@H](CCC(=O)O)NC(=O)[C@H](C)NC(=O)[C@H](CCCNC(=N)N)NC(=O)[C@H](CCC(=O)O)NC(=O)[C@H](CCCNC(=N)N)NC(=O)[C@H](CCC(N)=O)NC(=O)[C@H](CO)NC(=O)[C@H](CCC(N)=O)NC(=O)[C@@H](NC(=O)[C@H](CCCCN)NC(=O)[C@H](CCC(=O)O)NC(=O)[C@H](CC(C)C)NC(=O)[C@H](CCC(=O)O)NC(=O)[C@H](CC(C)C)NC(=O)[C@H](CC(C)C)NC(=O)[C@@H](NC(=O)[C@H](CCCNC(=N)N)NC(=O)[C@H](CC(C)C)NC(=O)[C@H](CC(C)C)NC(=O)[C@H](CC(C)C)NC(=O)[C@H](CC(C)C)NC(=O)[C@@H]1CCCN1C(=O)[C@@H](NC(=O)[C@H](CC(=O)O)NC(=O)[C@@H](NC(=O)[C@H](CO)NC(=O)[C@H](CC(C)C)NC(=O)[C@H](CO)NC(=O)[C@@H]1CCCN1C(=O)[C@H](CC(N)=O)NC(=O)[C@@H](N)CC(=O)O)[C@@H](C)CC)C(C)C)[C@@H](C)O)[C@@H](C)O)C(=O)N[C@@H](Cc1ccccc1)C(=O)N[C@@H](C)C(=O)N[C@@H](CCCNC(=N)N)C(=O)N[C@H](C(N)=O)C(C)C` [compound 384] (H-DNPSLSIDVPLLLLRTLLELEKTQSQRERAEQNARIFARV-NH2; N-terminus assumed), the Emax [1] is reported as 97.3% and the Emax [2] is reported as 70.3%.
For `CC[C@H](C)[C@H](NC(=O)[C@H](CO)NC(=O)[C@H](CC(C)C)NC(=O)[C@H](CO)NC(=O)[C@@H]1CCCN1C(=O)[C@H](CC(N)=O)NC(=O)[C@@H](N)CC(=O)O)C(=O)N[C@@H](CC(=O)O)C(=O)N[C@@H](CC(C)C)C(=O)N[C@H](C(=O)N[C@@H](Cc1ccccc1)C(=O)N[C@@H](Cc1cnc[nH]1)C(=O)N[C@@H](CC(C)C)C(=O)N[C@@H](CC(C)C)C(=O)N[C@@H](CCCNC(=N)N)C(=O)N[C@H](C(=O)N[C@@H](CC(C)C)C(=O)N[C@@H](CC(C)C)C(=O)N[C@@H](CCC(=O)O)C(=O)N[C@@H](CC(C)C)C(=O)N[C@@H](C)C(=O)N[C@@H](CCCNC(=N)N)C(=O)N[C@H](C(=O)N[C@@H](CCC(N)=O)C(=O)N[C@@H](CO)C(=O)N[C@@H](CCC(N)=O)C(=O)N[C@@H](CCCNC(=N)N)C(=O)N[C@@H](CCC(=O)O)C(=O)N[C@@H](CCCNC(=N)N)C(=O)N[C@@H](C)C(=O)N[C@@H](CCC(=O)O)C(=O)N[C@@H](CCC(N)=O)C(=O)N[C@@H](CC(N)=O)C(=O)N[C@@H](CCCNC(=N)N)C(=O)N[C@H](C(=O)N[C@H](C(=O)N[C@@H](Cc1ccccc1)C(=O)N[C@@H](CC(=O)O)C(=O)N[C@@H](CO)C(=O)N[C@H](C(N)=O)C(C)C)[C@@H](C)CC)[C@@H](C)CC)[C@@H](C)O)[C@@H](C)O)[C@@H](C)O` [hUcnI, human urocortin I, reference compound] (H-DNPSLSIDLTFHLLRTLLELARTQSQRERAEQNRIIFDSV-NH2), the EC50 [1] was 3.52 nM and the EC50 ([2]; CRF1R EC50) was 9 nM.
Compound `CC[C@H](C)[C@H](N)C(=O)N[C@H](C(=O)N[C@@H](CC(C)C)C(=O)N[C@@H](CO)C(=O)N[C@@H](CC(C)C)C(=O)N[C@@H](CC(=O)O)C(=O)N[C@H](C(=O)N1CCC[C@H]1C(=O)NCC(=O)N1CCC[C@H]1C(=O)N[C@@H](CC(C)C)C(=O)N[C@@H](CC(C)C)C(=O)N[C@@H](CCC(N)=O)C(=O)N[C@H](C(=O)N[C@@H](CC(C)C)C(=O)N[C@@H](CC(C)C)C(=O)N[C@@H](CCC(=O)O)C(=O)N[C@@H](CCC(N)=O)C(=O)N[C@H](C(=O)N[C@@H](CCCCN)C(=O)N[C@@H](CCC(N)=O)C(=O)N[C@@H](CCC(=O)O)C(=O)N[C@@H](C)C(=O)N[C@@H](C)C(=O)N[C@@H](CCCNC(=N)N)C(=O)N[C@@H](CCC(=O)O)C(=O)N[C@@H](CCC(N)=O)C(=O)N[C@@H](C)C(=O)N[C@H](C(=O)N[C@H](C(=O)N[C@@H](CC(N)=O)C(=O)N[C@@H](C)C(=O)N[C@@H](CCCNC(=N)N)C(=O)N[C@H](C(=O)N[C@@H](CC(C)C)C(=O)N[C@@H](C)C(=O)N[C@@H](CCCNC(=N)N)C(=O)N[C@H](C(N)=O)C(C)C)[C@@H](C)CC)[C@@H](C)O)[C@@H](C)O)[C@@H](C)O)[C@@H](C)CC)C(C)C)C(C)C` [compound 5] (H-IVLSLDVPGPLLQILLEQTKQEAAREQATTNARILARV-NH2) has an Emax [1] of 12% and an Emax [2] of 9%.
For `CC[C@H](C)[C@H](NC(=O)[C@H](C)NC(=O)[C@H](CC(N)=O)NC(=O)[C@H](CCC(N)=O)NC(=O)[C@H](CCC(=O)O)NC(=O)[C@H](C)NC(=O)[C@H](CCCNC(=N)N)NC(=O)[C@H](CCC(=O)O)NC(=O)[C@H](CCCNC(=N)N)NC(=O)[C@H](CCC(N)=O)NC(=O)[C@H](CO)NC(=O)[C@H](CCC(N)=O)NC(=O)[C@@H](NC(=O)[C@H](CCCNC(=N)N)NC(=O)[C@H](C)NC(=O)[C@H](CC(C)C)NC(=O)[C@H](CCC(=O)O)NC(=O)[C@H](CC(C)C)NC(=O)[C@H](CC(C)C)NC(=O)[C@@H](NC(=O)[C@H](CCCNC(=N)N)NC(=O)[C@H](CC(C)C)NC(=O)[C@H](CC(C)C)NC(=O)[C@H](Cc1ccccc1)NC(=O)[C@H](CC(C)C)NC(=O)[C@@H]1CCCN1C(=O)[C@H](CC(C)C)NC(=O)[C@H](CC(=O)O)NC(=O)[C@@H](NC(=O)[C@H](CO)NC(=O)[C@H](CC(C)C)NC(=O)[C@H](CO)NC(=O)[C@@H]1CCCN1C(=O)[C@H](CC(N)=O)NC(=O)[C@@H](N)CC(=O)O)[C@@H](C)CC)[C@@H](C)O)[C@@H](C)O)C(=O)N[C@H](C(=O)N[C@@H](Cc1ccccc1)C(=O)N[C@@H](C)C(=O)N[C@@H](CO)C(=O)N[C@H](C(N)=O)C(C)C)[C@@H](C)CC` [compound 178] (H-DNPSLSIDLPLFLLRTLLELARTQSQRERAEQNAIIFASV-NH2; N-terminus assumed), the Emax [1] was 96.5% and the Emax [2] was 55.7%.
Compound “NDDPPISIDLPLLLLRNMIEMARIENEREQAGLNAKYLAEV-NH2 [compound 268]” has an Emax [1] of 59% and an Emax [2] of 14.2%.
In the case of “SQEPPISLDLPTYLLREVLEMTKADQLAQQAHSNRKLLDIA-NH2 [compound 106]”, the Emax [1] is reported as 6.1% and the Emax [2] is reported as 4.8%.
`CC[C@H](C)[C@H](NC(=O)[C@H](C)NC(=O)[C@H](CC(N)=O)NC(=O)[C@H](CCC(N)=O)NC(=O)[C@H](CCC(=O)O)NC(=O)[C@H](C)NC(=O)[C@H](CCCNC(=N)N)NC(=O)[C@H](CCC(=O)O)NC(=O)[C@H](CCCNC(=N)N)NC(=O)[C@H](CCC(N)=O)NC(=O)[C@H](CO)NC(=O)[C@H](CCC(N)=O)NC(=O)[C@@H](NC(=O)[C@H](CCCNC(=N)N)NC(=O)[C@H](C)NC(=O)[C@H](CC(C)C)NC(=O)[C@H](CCC(=O)O)NC(=O)[C@H](CC(C)C)NC(=O)[C@H](CC(C)C)NC(=O)[C@@H](NC(=O)[C@H](CCCNC(=N)N)NC(=O)[C@H](CC(C)C)NC(=O)[C@H](CC(C)C)NC(=O)[C@H](Cc1c[nH]cn1)NC(=O)[C@H](CC(C)C)NC(=O)[C@@H]1CCCN1C(=O)[C@H](CC(C)C)NC(=O)[C@H](CC(=O)O)NC(=O)[C@@H](NC(=O)[C@H](CO)NC(=O)[C@H](CC(C)C)NC(=O)[C@H](CO)NC(=O)[C@@H]1CCCN1C(=O)[C@H](CC(N)=O)NC(=O)[C@@H](N)CC(=O)O)[C@@H](C)CC)[C@@H](C)O)[C@@H](C)O)C(=O)N[C@H](C(=O)N[C@@H](Cc1ccccc1)C(=O)N[C@@H](C)C(=O)N[C@@H](CO)C(=O)N[C@H](C(N)=O)C(C)C)[C@@H](C)CC` [compound 179] (H-DNPSLSIDLPLHLLRTLLELARTQSQRERAEQNAIIFASV-NH2; N-terminus assumed) showed an Emax [1] of 92.5% and an Emax [2] of 78.9%.
Compound `CC[C@H](C)[C@H](N)C(=O)N[C@H](C(=O)N[C@@H](CC(C)C)C(=O)N[C@@H](CO)C(=O)N[C@@H](CC(C)C)C(=O)N[C@@H](CC(=O)O)C(=O)N[C@H](C(=O)N1CCC[C@H]1C(=O)N[C@H](C(=O)NCC(=O)N[C@@H](CC(C)C)C(=O)N[C@@H](CC(C)C)C(=O)N[C@@H](CCC(N)=O)C(=O)N[C@H](C(=O)N[C@@H](CC(C)C)C(=O)N[C@@H](CC(C)C)C(=O)N[C@@H](CCC(=O)O)C(=O)N[C@@H](CCC(N)=O)C(=O)N[C@@H](C)C(=O)N[C@@H](CCCNC(=N)N)C(=O)N[C@@H](C)C(=O)N[C@@H](C)C(=O)N[C@@H](C)C(=O)N[C@@H](CCCNC(=N)N)C(=O)N[C@@H](CCC(=O)O)C(=O)N[C@@H](CCC(N)=O)C(=O)N[C@@H](C)C(=O)N[C@H](C(=O)N[C@H](C(=O)N[C@@H](CC(N)=O)C(=O)N[C@@H](C)C(=O)N[C@@H](CCCNC(=N)N)C(=O)N[C@H](C(=O)N[C@@H](CC(C)C)C(=O)N[C@@H](C)C(=O)N[C@@H](CCCNC(=N)N)C(=O)N[C@H](C(N)=O)C(C)C)[C@@H](C)CC)[C@@H](C)O)[C@@H](C)O)[C@@H](C)CC)[C@@H](C)CC)C(C)C)C(C)C` [compound 141] (H-IVLSLDVPIGLLQILLEQARAAAREQATTNARILARV-NH2) has an Emax [1] of 29% and an Emax [2] of 7%.
